Here are results for 5 compounds from patent US10806747B2, “Methods for treating infection including sepsis via P2X receptor modulation” (Rutgers, The State University of New Jersey, priority 2017, dated 2020).

Assay [1] concerns peritoneal macrophages. The experiment in a line: Intracellular killing of E. coli by peritoneal macrophages (gentamicin protection, CFU count). As to conditions: for effect on ATP-stimulated E. coli killing: antagonist pretreatment 30 min before 5 min ATP pulse. The format is cell-based, murine. How it is done: FIGS. 1A through 1K show ATP augments bacterial killing in macrophages in a P2X4R-dependent fashion. […] Peritoneal macrophages from WT and P2X7R^−/− mice were infected with E. coli (FIG. 1A) or with S. aureus (FIG. 1B) for 90 minutes, which was followed by pulsing the cells with ATP for 5 minutes. Subsequently, after a 2-hour incubation with 400 ng/ml gentamicin, the macrophages were lysed and serial dilutions of their intracellular content were spread onto LB agar plates. *P<0.05; **P<0.01 vs. E. coli; n=5-6. FIG. 1C and FIG. 1D show ATP augments bacterial killing independently of adenosine. Macrophages from WT and CD39^−/− mice were infected with E. coli, pulsed with ATP (FIG. 1C) or adenosine (FIG. 1D), and then incubated with gentamicin for 2 hours, which was followed by intracellular CFU counting. *P<0.05; **P<0.01 vs. E. coli; n=4-6. […] Peritoneal macrophages were isolated from WT mice and RNA was extracted from untreated cells. RNA was transcribed and quantitative PCRs were conducted. n=6. FIGS. 1F through 1K show P2X4Rs are responsible for the ATP-stimulated increase in bacterial killing in macrophages. Peritoneal macrophages were infected with E. coli for 90 min, pretreated with (FIG. 1F) P2X4R antagonist (5-BDBD) or (FIG. 1G) P2X7R antagonist (A438079) for 30 minutes before an ATP pulse for 5 minutes, and then incubated with gentamicin for 2 hours. Killing was determined at the end of this incubation period. *P<0.05; ***P<0.001 vs. E. coli treatment; ^##P<0.01 vs. ATP/E. coli treatment; n=5-6. In FIG. 1H, macrophages were transfected with scrambled siRNA- or P2X4 siRNA, and the effect of ATP on bacterial killing determined. **P<0.01 vs. E. coli treatment; n=6. In FIG. 1I, peritoneal macrophages from WT and P2X4R^−/− mice were infected with E. coli, pulsed with ATP, incubated with gentamicin for 2 hours and then bacterial killing was determined. **P<0.01 vs. E. coli treatment; n=6. In FIGS. 1J and 1K, phorbol 12-myristate 13-acetate (PMA)-differentiated human monocytic THP-1 cells were infected with E. coli for 90 minutes, exposed to ATP for 5 minutes and then killing was determined as described above for peritoneal macrophages (FIG. 1J). In other experiments, THP-1 cells were infected with E. coli, pretreated with 5-BDBD or vehicle for 30 minutes before a 5-minutes ATP pulse (FIG. 1K), two hours after which intracellular CFUs were determined. **P<0.01; vs. E. coli treatment; ^##P<0.01 vs. ATP/E. coli treatment. n=6-7. Data are expressed as mean±SEM. All results are representatives of three experiments.
Naive, thioglycollate-elicited murine peritoneal macrophages were treated with E. coli (K-12 strain) at 1:15 cell:bacteria ratio in vitro and incubated for 90 minutes to allow for phagocytosis to occur. After 90 minutes, the cells were washed to remove non-phagocytosed bacteria and treated with increasing concentrations (0.1 to 3 μM) of ATP or adenosine for 5 minutes. After 5 minutes, the medium was removed and the cells were washed extensively.
New medium was added that was supplemented with 100 μg/mL gentamicin. This allowed the maturation of the phagosome and killing of the phagocytosed bacteria. The cells were incubated for approximately 2 hours at 37° C. After incubation, the cells were washed 5 times to remove the gentamicin and were lysed. Colony forming units (CPUs) were determined after an overnight incubation on agar.

The test system of assay [2] is sepsis by cecal ligation and puncture (CLP). Kind of assay: CLP sepsis model: survival, bacterial load, plasma BUN. As to conditions: for survival: monitored 7 days, vs vehicle. The format is in vivo, mice. How it is done:
WT and P2X4R^−/− mice were injected with 10 mg/kg ivermectin or its vehicle and subjected to CLP. The survival of mice was monitored for 7 days *P<0.05-P2X4R^−/− injected with vehicle (n=21) vs. WT injected with vehicle (n=25); ***P<0.001—WT injected with ivermectin (n=20); vs. WT injected with vehicle (n=25). In FIGS. 3B and 3C bacterial burden was determined by counting the number of CFUs on blood agar plates after serial dilution of blood and peritoneal lavage samples. Blood and lavage fluid were collected at 16 hours after CLP. *P<0.05 vs. veh (veh and 10 mg/kg ivermectin; n=10 and 9, respectively. In FIG. 3D BUN was determined from plasma of ivermectin- or vehicle-treated mice 16 hours after CLP. *P<0.05. Veh and 10 mg/kg ivermectin; n=10 and 9, respectively. FIGS. 3E and 3F show ivermectin increasing intracellular killing of E. coli in cultured macrophages. Peritoneal macrophages were infected with E. coli for 90 minutes and then pulsed with ATP for 5 minutes. ATP was then removed and the macrophages were incubated with ivermectin for 30 minutes. Thereafter the ivermectin was removed and the cells were incubated in medium containing gentamicin for another 2 hours. The cells were then lysed and serial dilutions of intracellular content were spread onto LB agar plates. *P<0.05 (n=5-6); **P<0.01 (n=5-6). Data are expressed as mean±SEM. All results are representatives of three experiments.
From these studies, it was believed that pharmacological activation of P2X4Rs would have an effect opposite to that of inactivating these receptors genetically; that is that the pharmacological activation of P2X4Rs would be protective. To examine this, mice were injected with ivermectin, an anti-helminth drug that is a partial allosteric activator of P2X4Rs (Khakh et al. J Neurosci 1999 19:7289-7299) 90 minutes after performing CLP. […] Furthermore, ivermectin potentiated the ATP stimulation of bacterial killing in macrophages in vitro (FIGS. 3E and 3F).
Male C57B16/J rmce were anesthetized using Nembutal, and a 2-cm midline laparotomy was performed to allow exposure of the cecum with adjoining intestine. Approximately two-thirds of the cecum was tightly ligated with a 3.0 silk suture, and the ligated part of the cecum was perforated twice (through and through) with a 20-gauge needle. […] The mice were resuscitated with 1 ml of physiological saline injected subcutaneously and returned to their cages with free access to food and water, and survival was monitored for 7 days (p<0.05). Survival curves were analyzed using two-tailed Fisher's exact test.
Bacterial load in mice subjected to CLP was measured at 16 h after surgery. Dilutions of blood or peritoneal lavage fluid were cultured on tryptose blood agar plates, and the number of bacterial colonies was counted. […]

Assay [3] relates to human monocytic THP-1 cells. The experiment in a line: Intracellular killing of E. coli by PMA-differentiated THP-1 cells. The assay is classed as cell-based. The procedure:
(§1) FIGS. 1A through 1K show ATP augments bacterial killing in macrophages in a P2X4R-dependent fashion. […] Peritoneal macrophages from WT and P2X7R^-/- mice were infected with E. coli (FIG. 1A) or with S. aureus (FIG. 1B) for 90 minutes, which was followed by pulsing the cells with ATP for 5 minutes. Subsequently, after a 2-hour incubation with 400 ng/ml gentamicin, the macrophages were lysed and serial dilutions of their intracellular content were spread onto LB agar plates. *P<0.05; **P<0.01 vs. E. coli; n=5-6. FIG. 1C and FIG. 1D show ATP augments bacterial killing independently of adenosine. […] RNA was transcribed and quantitative PCRs were conducted. n=6. […] Killing was determined at the end of this incubation period. *P<0.05; ***P<0.001 vs. E. coli treatment; ^##P<0.01 vs. ATP/E. coli treatment; n=5-6. In FIG. 1H, macrophages were transfected with scrambled siRNA- or P2X4 siRNA, and the effect of ATP on bacterial killing determined. **P<0.01 vs. E. coli treatment; n=6. In FIG. 1I, peritoneal macrophages from WT and P2X4R^-/- mice were infected with E. coli, pulsed with ATP, incubated with gentamicin for 2 hours and then bacterial killing was determined. **P<0.01 vs. E. coli treatment; n=6. […] Data are expressed as mean±SEM. […]

The test system of assay [4] is peritoneal macrophages. Kind of assay: Intracellular killing of S. aureus by peritoneal macrophages (CFU count). The assay is classed as cell-based, mice. The conditions noted are these: WT and P2X7R−/− macrophages; S. aureus 90 min, ATP pulse 5 min. How it is done:
as §1

The test system of assay [5] is murine polymicrobial sepsis. The conditions noted are these: injected ATP; cited from earlier work.

With 22,23-dihydroavermectin [ivermectin], in the assay on peritoneal macrophages [1] (E. coli 90 min, ATP pulse 5 min, then ivermectin 30 min, gentamicin 2 h), the “ATP stimulation of bacterial killing in macrophages” value is “potentiated”. Moreover, the “plasma BUN levels” value in assay [2] (16 hours after CLP, 10 mg/kg ivermectin vs vehicle) is recorded as “diminished plasma BUN levels”. The survival entry in assay [2] (P2X4R−/− mice, 10 mg/kg ivermectin, CLP) is recorded as “failed to improve survival”; in assay [2] (WT mice, 10 mg/kg ivermectin 90 minutes after CLP) it was “improved survival”. Also, in assay [2] (blood and peritoneal lavage, 16 hours after CLP, 10 mg/kg ivermectin vs vehicle), the “bacterial burden (CFUs)” value is reported as “decreased bacteria”.
Regarding `Nc1ncnc2c1ncn2[C@@H]1O[C@H](COP(=O)(O)OP(=O)(O)OP(=O)(O)O)[C@@H](O)[C@H]1O` [ATP, adenosine triphosphate], the “killing of E. coli” value in assay [3] (ATP 5 min) is “increased killing of E. coli”; in the assay on peritoneal macrophages [1] (WT and P2X7R−/− macrophages, E. coli 90 min, ATP pulse 5 min, gentamicin 2 h), “increased killing of E. coli”; in the assay with peritoneal macrophages [1] (macrophages from P2X4R−/− mice, ATP pulse) it was “failed to stimulate E. coli killing”; with peritoneal macrophages [1] (macrophages from WT littermate controls, ATP pulse), “dose-dependent increase in killing”; in the assay on peritoneal macrophages [1] (macrophages lacking CD39 (CD39−/−), ATP pulse) it was “also killed E. coli”. For the same compound, the “stimulatory effect of ATP on E. coli killing” value with peritoneal macrophages [1] (macrophages with P2X4R silencing vs scrambled control) is “largely reversed”. In addition, the “intracellular bacterial killing (S. aureus)” value in the assay with peritoneal macrophages [4] is on record as “increases intracellular bacterial killing”. In addition, in assay [5], the macrophage-mediated bacterial killing entry was “augments macrophage-mediated bacterial killing”.
In the case of `O=C1CN=C(c2cccc(Br)c2)c2oc3ccccc3c2N1` [P2X4R antagonist], the “effect on ATP-stimulated E. coli killing” value was “inhibited the stimulatory effect of ATP on E. coli killing” in assay [3] (antagonist 30 min before 5 min ATP pulse) and “prevented the stimulatory effect of ATP on E. coli killing” with peritoneal macrophages [1].
With `Clc1cccc(-c2nnnn2Cc2cccnc2)c1Cl` [P2X7R antagonist], the “effect on ATP-stimulated E. coli killing” value in the assay with peritoneal macrophages [1] is “not P2X7R antagonist (FIG. 1G) prevented the stimulatory effect of ATP”.
As for `Nc1ncnc2c1ncn2[C@@H]1O[C@H](CO)[C@@H](O)[C@H]1O` [adenosine], the “killing of E. coli” value in the assay on peritoneal macrophages [1] (macrophages from WT and CD39−/− mice, adenosine pulse) was “failed to increase E. coli killing”.
